Experimental data as given in US9561228B2 (Celgene Avilomics Research, Inc., priority 2013, dated 2017).

Tests used:
Assay type in all cases: cell-based
[1] = test system: ERK1/2 phosphorylation of p90RSK in HCT116 cells; assay: Detection of total and phospho-RSK by MSD ELISA (HCT116); details: Homo sapiens, HCT-116, read-out: ERK1/ERK2 PRSK HCT116 EC50
Summary of the method: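 ERK1/2 activity read in cells as p90RSK phosphorylation: lysates from HCT116 cells given compound for 2 h at 37° C were captured on MSD plates. Detection used a pSer380 RSK or a total RSK antibody with SulfoTag secondaries.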

[2] = test system: ERK1/2 phosphorylation of p90RSK in HT29 cells; assay: pRSK MSD Assay in HT29 cells; details: Homo sapiens, HT-29, read-out: ERK1/ERK2 PRSK MSD HT29 EC50
Summary of the method: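 Phospho-RSK level, read by electrochemiluminescence on RSK-antibody-coated MSD plates with a phospho-RSK/Sulfo-tag detection pair, reports cellular ERK1/2 activity. HT29 cells, kept overnight in 0.1% FBS medium, were exposed to compound for 120 min at 37° C before lysis.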

[3] = test system: A375 cells (malignant melanoma); assay: Inhibition of cancer cell proliferation, A375 (CellTiterGlo, 72 hours); details: Homo sapiens, A-375
Summary of the method: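 GI50 derived from % growth inhibition relative to untreated wells, after luminescence (CellTiterGlo, 10 min) was converted to cell counts using a standard curve. Compound given as 3-fold dilutions from a 2× 5,000 nM stock in serum-free DMEM; 3000 A375 cells/well, 72 h culture at 37 °C.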

| EC50 [1] | EC50 [2] | GI50 [3] | SMILES |
| --- | --- | --- | --- |
| < 100 nM | < 100 nM | < 100 nM | C=CC(=O)Nc1cc(C)ccc1Nc1nc(Nc2cc(NC3CC3)nc(OC)c2)ncc1C(F)(F)F [Compound I-337, N-(2-((2-((2-(cyclopropylamino)-6-methoxypyridin-4-yl)amino)-5-(trifluoromethyl)pyrimidin-4-yl)amino)-5-methylphenyl)acrylamide] |
| 101 to 500 nM | < 100 nM | 101 to 500 nM | C=CC(=O)Nc1cc(C(F)(F)F)ccc1Nc1nc(Nc2cc(OC)ncc2C)ncc1C(F)(F)F [Compound I-323, N-(2-((2-((2-methoxy-5-methylpyridin-4-yl)amino)-5-(trifluoromethyl)pyrimidin-4-yl)amino)-5-(trifluoromethyl)phenyl)acrylamide] |
| < 100 nM | – | < 100 nM | C=CC(=O)Nc1cc(C)ccc1Nc1nc(Nc2cc(N[C@H]3CC[C@@H](O)CC3)nc(OC)c2)ncc1C(F)(F)F [Compound I-326, N-(2-((2-((2-((cis-4-hydroxycyclohexyl)amino)-6-methoxypyridin-4-yl)amino)-5-(trifluoromethyl)pyrimidin-4-yl)amino)-5-methylphenyl)acrylamide] |
| > 1000 nM | 101 to 500 nM | > 1000 nM | C=CS(=O)(=O)Nc1cc(C)ccc1Nc1nc(Nc2cc(OC)ncc2C)ncc1C(F)(F)F [Compound I-333, N-(2-((2-((2-methoxy-5-methylpyridin-4-yl)amino)-5-(trifluoromethyl)pyrimidin-4-yl)amino)-5-methylphenyl)ethenesulfonamide] |
| 101 to 500 nM | < 100 nM | – | C=CC(=O)Nc1ccccc1Nc1nc(Nc2ccnc(F)c2)ncc1C(F)(F)F [Compound I-287, N-(2-((2-((2-Fluoropyridin-4-yl)amino)-5-(trifluoromethyl)pyrimidin-4-yl)amino)phenyl)acrylamide] |
| – | > 1000 nM | > 1000 nM | C=CC(=O)Nc1ccccc1Nc1nc(N[C@@H]2CCN(C(C)=O)C2)ncc1C(F)(F)F [Compound I-60, (R)—N-(2-((2-((1-Acetylpyrrolidin-3-yl)amino)-5-(trifluoromethyl)pyrimidin-4-yl)amino)phenyl)acrylamide] |
| – | < 100 nM | 101 to 500 nM | C=CC(=O)Nc1cc(OC)ccc1Nc1nc(Nc2cc(Cl)nc(OC)c2)ncc1Cl [Compound I-245, N-(2-((5-chloro-2-((2-chloro-6-methoxypyridin-4-yl)amino)pyrimidin-4-yl)amino)-5-methoxyphenyl)acrylamide] |
| < 100 nM | – | < 100 nM | C=CC(=O)Nc1ccccc1Nc1nc(Nc2cc(OC)nc(N3CCN(C)CC3)c2)ncc1C(F)(F)F [Compound I-324, N-(2-((2-((2-methoxy-6-(4-methylpiperazin-1-yl)pyridin-4-yl)amino)-5-(trifluoromethyl)pyrimidin-4-yl)amino)phenyl)acrylamide] |
| – | > 1000 nM | 101 to 500 nM | C=CC(=O)Nc1ccccc1Nc1nc(N[C@H]2CCN(C(=O)OC)C2)ncc1C(F)(F)F [Compound I-59, (S)-methyl 3-((4-((2-Acrylamidophenyl)amino)-5-(trifluoromethyl)pyrimidin-2-yl)amino)pyrrolidine-1-carboxylate] |
| – | < 100 nM | < 100 nM | C=CC(=O)Nc1cc(C)ccc1Nc1nc(Nc2cc(OC)nc(N3CCOCC3)c2)ncc1C(F)(F)F [Compound I-94, N-(2-((2-((2-Methoxy-6-morpholinopyridin-4-yl)amino)-5-(trifluoromethyl)pyrimidin-4-yl)amino)-5-methylphenyl)acrylamide] |
| < 100 nM | < 100 nM | – | C=CC(=O)Nc1cc(C)ccc1Nc1nc(Nc2cc(C)nc(OC)c2)ncc1C(F)(F)F [Compound I-295, N-(2-((2-((2-methoxy-6-methylpyridin-4-yl)amino)-5-(trifluoromethyl)pyrimidin-4-yl)amino)-5-methylphenyl)acrylamide] |
| – | < 100 nM | 101 to 500 nM | C=CC(=O)Nc1cc(C)ccc1Nc1nc(Nc2cc(C(N)=O)ccn2)ncc1Cl [Compound I-238, 2-((4-((2-acrylamido-4-methylphenyl)amino)-5-chloropyrimidin-2-yl)amino)isonicotinamide] |
| – | < 100 nM | < 100 nM | C=CC(=O)Nc1ccccc1Nc1nc(Nc2cc(Cl)nc(OC)c2)ncc1Cl [Compound I-246, N-(2-((5-chloro-2-((2-chloro-6-methoxypyridin-4-yl)amino)pyrimidin-4-yl)amino)phenyl)acrylamide] |
| – | 101 to 500 nM | < 100 nM | C=CC(=O)Nc1cc(OC)ccc1Nc1nc(Nc2cc(OC)nc(N3CCN(CC)CC3)c2)ncc1C(F)(F)F [Compound I-88, N-(2-((2-((2-(4-Ethylpiperazin-1-yl)-6-methoxypyridin-4-yl)amino)-5-(trifluoromethyl)pyrimidin-4-yl)amino)-5-methoxyphenyl)acrylamide] |
| – | < 100 nM | < 100 nM | C=CC(=O)Nc1cc(C)ccc1Nc1nc(N[C@H]2CCCN(C(=O)CO)C2)ncc1Cl [Compound I-140, (S)—N-(2-((5-chloro-2-((1-(2-hydroxyacetyl)piperidin-3-yl)amino)pyrimidin-4-yl)amino)-5-methylphenyl)acrylamide] |
| > 1000 nM | 101 to 500 nM | – | C=CC(=O)Nc1cc(C)ccc1Nc1nc(Nc2cc(OC)ccc2C)ncc1C(F)(F)F [Compound I-341, N-(2-((2-((5-methoxy-2-methylphenyl)amino)-5-(trifluoromethyl)pyrimidin-4-yl)amino)-5-methylphenyl)acrylamide] |
| – | 101 to 500 nM | < 100 nM | C=CC(=O)Nc1cc(C)ccc1Nc1nc(Nc2cc(OC)nc(N3CCN(CC)CC3)c2)ncc1C(F)(F)F [Compound I-89, N-(2-((2-((2-(4-Ethylpiperazin-1-yl)-6-methoxypyridin-4-yl)amino)-5-(trifluoromethyl)pyrimidin-4-yl)amino)-5-methylphenyl)acrylamide] |
| < 100 nM | – | < 100 nM | C=CC(=O)Nc1ccccc1Nc1nc(Nc2cc(N[C@H]3CC[C@@H](O)CC3)nc(OC)c2)ncc1C(F)(F)F [Compound I-292] |
| 101 to 500 nM | – | < 100 nM | C=CC(=O)Nc1cc(C)ccc1Nc1nc(Nc2cc(OC)cc(OC)c2)ncc1C(F)(F)F [Compound I-339, N-(2-((2-((3,5-dimethoxyphenyl)amino)-5-(trifluoromethyl)pyrimidin-4-yl)amino)-5-methylphenyl)acrylamide] |
| – | < 100 nM | < 100 nM | C=CC(=O)Nc1ccccc1Nc1nc(Nc2cc(OC)nc(OC)c2)ncc1C(F)(F)F [Compound I-95, N-(2-((2-((2,6-Dimethoxypyridin-4-yl)amino)-5-(trifluoromethyl)pyrimidin-4-yl)amino)phenyl)acrylamide] |
| – | < 100 nM | < 100 nM | C=CC(=O)Nc1ccccc1Nc1nc(N[C@H]2CCCN(C(C)=O)C2)ncc1Cl [Compound I-115, (S)—N-(2-((2-((1-acetylpiperidin-3-yl)amino)-5-chloropyrimidin-4-yl)amino)phenyl)acrylamide] |
| – | 101 to 500 nM | 101 to 500 nM | C=CC(=O)Nc1ccccc1Nc1nc(N[C@H]2CCN(S(C)(=O)=O)C2)ncc1C(F)(F)F [Compound I-58, (S)—N-(2-((2-((1-(Methylsulfonyl)pyrrolidin-3-yl)amino)-5-(trifluoromethyl)pyrimidin-4-yl)amino)phenyl)acrylamide] |
| – | 101 to 500 nM | 101 to 500 nM | C=CC(=O)Nc1ccccc1Nc1nc(N[C@H]2CCN(C(C)=O)C2)ncc1C(F)(F)F [Compound I-56, (S)—N-(2-((2-((1-Acetylpyrrolidin-3-yl)amino)-5-(trifluoromethyl)pyrimidin-4-yl)amino)phenyl)acrylamide] |
| > 1000 nM | 101 to 500 nM | – | C=CC(=O)Nc1ccccc1Nc1nc(Nc2cc(F)ccc2C)ncc1C(F)(F)F [Compound I-285, N-(2-((2-((5-Fluoro-2-methylphenyl)amino)-5-(trifluoromethyl)pyrimidin-4-yl)amino)phenyl)acrylamide] |
| – | < 100 nM | < 100 nM | C=CC(=O)Nc1cc(OC)ccc1Nc1nc(N[C@H]2CCCN(C(=O)CO)C2)ncc1C(F)(F)F [Compound I-64, (S)—N-(2-((2-((1-(2-Hydroxyacetyl)piperidin-3-yl)amino)-5-(trifluoromethyl)pyrimidin-4-yl)amino)-5-methoxyphenyl)acrylamide] |
| 101 to 500 nM | 101 to 500 nM | – | C=CC(=O)Nc1cc(C)ccc1Nc1nc(Nc2ccnc(F)c2)ncc1C(F)(F)F [Compound I-288, N-(2-((2-((2-Fluoropyridin-4-yl)amino)-5-(trifluoromethyl)pyrimidin-4-yl)amino)-5-methylphenyl)acrylamide] |
| – | 101 to 500 nM | 101 to 500 nM | C=CC(=O)Nc1ccccc1Nc1nc(N[C@H]2CCN(C(=O)CO)C2)ncc1C(F)(F)F [Compound I-57, (S)—N-(2-((2-((1-(2-Hydroxyacetyl)pyrrolidin-3-yl)amino)-5-(trifluoromethyl)pyrimidin-4-yl)amino)phenyl)acrylamide] |
| – | < 100 nM | < 100 nM | C=CC(=O)Nc1ccccc1Nc1nc(Nc2cc(C(N)=O)ccc2C)ncc1C(F)(F)F [Compound I-68, 3-(4-(2-Acrylamidophenylamino)-5-(trifluoromethyl)pyrimidin-2-ylamino)-4-methylbenzamide] |
